Experimental data: US7655442B2, “Method for stabilizing macrolide compounds” (Eisai R&D Management Co., Ltd., priority 2004, dated 2010)
Where two headings read alike, the source gives them in different places.

What was measured:
[1] = Effects of various cyclodextrins on stabilization of macrolide compound 11107B in Dulbecco's PBS (-) at 25° C. (HPLC purity); assay type: physicochemical
Procedure: The macrolide compound 11107B (hereinafter sometimes abbreviated as 11107B) and various cyclodextrins were dissolved in concentrations of 0.1 mg/mL and 10 mg/mL, respectively, in Dulbecco's PBS (−). The 11107B solution and cyclodextrin solution were mixed in equal volumes, and incubation was immediately begun in at thermostatic incubator at 25° C. The solution was sampled at the start (0 hour) and after 24 and 48 hours had elapsed, the samples were analyzed by high performance liquid chromatography (HPLC) under the following analysis conditions (A), and the purity of the 11107B was calculated from the following equation using the chromatogram thus obtained.
<HPLC Analysis Conditions (A)>
Column: L-column, 4.6×150 mm, Chemicals Evaluation and Research Institute
Column temperature: 35° C.
Detection wavelength: 241 nm
Mobile phase A: 0.1% (v/v) formic acid•10% (v/v) acetonitrile
Mobile phase B: 0.1% (v/v) formic acid•90% (v/v) acetonitrile
Gradient program: B=10% (start)→B=40% (15 minutes)→B=100% (20 minutes)→B=10% (20.01 minutes)→B=10% (23 minutes, stop)<
(§1) <Calculation Equation> 11107B purity(%)=[peak surface area value of 11107B/(sum of peak surface area value of 11107B+peak surface area value of impurities and decomposition products)]×100

[2] = assay type: physicochemical
Procedure: The macrolide compound 11107B was dissolved in Dulbecco's PBS (−) in a concentration of 0.1 mg/mL, and β-CD in concentrations of 10, 3, 1, and 0.3 mg/mL. The 11107B solution and β-CD solution were mixed in equal volumes, and incubation was immediately begun in a 40° C. thermostatic incubator. The solution was sampled at the start (0 hour) and after 1, 2, 4 and 6 hours had elapsed, the samples were analyzed by HPLC under the analysis conditions (A) of Example 1, and the concentration of the 11107B was calculated. Since the plot of the 11107B concentration versus elapsed time was substantially linear, it was concluded that decomposition was occurring in pseudo first-order reaction, and the apparent decomposition rate constant kobs was calculated from the slope thereof. kobs was termed k0 when no β-CD was prevent. According to a report by Ma et al. (J. Pharm. Sci. (2000), 89 (2), 275-287), 1/(k0-kobs) was plotted against the inverse of the β-CD concentration, kc, which is kobs when a large excess of β-CD was present, was calculated from an intercept thereof, and the stabilization constant Kc was calculated from the slope.

[3] = Effect of β-CD and methylated β-CD on stabilization of 11107B in Dulbecco's PBS (-) at 25° C. (HPLC purity); assay type: physicochemical
Procedure: as §1
The macrolide compound 11107B and β-CD or methylated β-CD were dissolved in Dulbecco's PBS (−) in concentrations of 0.1 mg/mL and 10 mg/mL, respectively. The 11107B solution and β-CD solution were mixed in equal volumes, and incubation was immediately begun in thermostatic incubator at 25° C. The solution was sampled at the start (0 hour) and after 24, 48 and 120 hours had elapsed, and the samples were analyzed by HPLC under the following analysis conditions (B). The purity of the 11107B was calculated from the equation in Example 1 using the resulting chromatogram.
<HPLC Analysis Conditions (B)>
Column: Develosil ODS UG-3, 4.6×50 mm, 3 μm (made by Nomura Chemical)
Column temperature: 40° C.
Detection wavelength: 240 nm
Eluate: water/methanol gradient
• A=water, B=methanol • 45-55% B (0 to 5 minutes), 55% B (5 to 13 minutes) • 55-70% B (13 to 21 minutes), 45% B (21 to 25 minutes) Retention time: 13 minutes (11107B)

[4] = assay type: physicochemical; settings: for Purity of macorolide compound 11107B: freeze-dried preparation
Procedure: as §1
Lactose monohydrate was dissolved in purified water in a concentration of 10 mg/mL and HP-β-CD in concentrations of 0, 10 and 200 mg/mL. The macrolide compound 11107B was dissolved in a concentration of 0.1 mg/mL in each of these three types of solution. 1 mL of each solution was put into vials and freeze-dried. The freeze-dried preparations thus obtained were stored for one month at −20° C., 40° C. and 60° C., after which 1 mL of 50% acetonitrile aqueous solution was added to each vial to dissolve the preparation. This product was analyzed by HPLC analysis under the conditions (A) of Example 1, and the purity of the 11107B was calculated according to the equation of Example 1.

[5] = β-CD concentration 0.15 mg/mL, PBS (-), 40° C.
[6] = β-CD concentration 0.5 mg/mL, PBS (-), 40° C.
[7] = β-CD concentration 1.5 mg/mL, PBS (-), 40° C.
[8] = β-CD concentration 5 mg/mL, PBS (-), 40° C.

CCC(O)C(C)C1OC1CC(C)/C=C/C=C(\C)C1OC(=O)CC(O)CCC(C)(O)C(OC(C)=O)/C=C/C1C (stereo not drawn) [11107B, (8E,12E,14E)-7-acetoxy-3,6,21-trihydroxy-6,10,12,16,20-pentamethyl-18,19-epoxytricosa-8,12,14-trien-11-olide]
Purity of macorolide compound 11107B ([1]; CD not added, 0 h, Dulbecco's PBS (-)): 99%
Purity of macorolide compound 11107B ([1]; CD not added, 24 h, Dulbecco's PBS (-)): 62%
Purity of macorolide compound 11107B ([1]; CD not added, 48 h, Dulbecco's PBS (-)): 35%
Purity of macorolide compound 11107B ([1]; HP-α-CD (10 mg/mL solution mixed in equal volume with 0.1 mg/mL 11107B), 0 h, PBS (-)): 99%
Purity of macorolide compound 11107B ([1]; HP-α-CD (10 mg/mL solution mixed in equal volume with 0.1 mg/mL 11107B), 24 h, PBS (-)): 71%
Purity of macorolide compound 11107B ([1]; HP-α-CD (10 mg/mL solution mixed in equal volume with 0.1 mg/mL 11107B), 48 h, PBS (-)): 47%
Purity of macorolide compound 11107B ([1]; HP-β-CD (10 mg/mL solution mixed in equal volume with 0.1 mg/mL 11107B), 0 h, PBS (-)): 100%
Purity of macorolide compound 11107B ([1]; HP-β-CD (10 mg/mL solution mixed in equal volume with 0.1 mg/mL 11107B), 24 h, PBS (-)): 93%
Purity of macorolide compound 11107B ([1]; HP-β-CD (10 mg/mL solution mixed in equal volume with 0.1 mg/mL 11107B), 48 h, PBS (-)): 86%
Purity of macorolide compound 11107B ([1]; HP-γ-CD (10 mg/mL solution mixed in equal volume with 0.1 mg/mL 11107B), 0 h, PBS (-)): 99%
Purity of macorolide compound 11107B ([1]; HP-γ-CD (10 mg/mL solution mixed in equal volume with 0.1 mg/mL 11107B), 24 h, PBS (-)): 83%
Purity of macorolide compound 11107B ([1]; HP-γ-CD (10 mg/mL solution mixed in equal volume with 0.1 mg/mL 11107B), 48 h, PBS (-)): 67%
Purity of macorolide compound 11107B ([1]; α-CD (10 mg/mL solution mixed in equal volume with 0.1 mg/mL 11107B), 0 h, PBS (-)): 99%
Purity of macorolide compound 11107B ([1]; α-CD (10 mg/mL solution mixed in equal volume with 0.1 mg/mL 11107B), 24 h, PBS (-)): 71%
Purity of macorolide compound 11107B ([1]; α-CD (10 mg/mL solution mixed in equal volume with 0.1 mg/mL 11107B), 48 h, PBS (-)): 47%
Purity of macorolide compound 11107B ([1]; β-CD (10 mg/mL solution mixed in equal volume with 0.1 mg/mL 11107B), 0 h, PBS (-)): 100%
Purity of macorolide compound 11107B ([1]; β-CD (10 mg/mL solution mixed in equal volume with 0.1 mg/mL 11107B), 24 h, PBS (-)): 95%
Purity of macorolide compound 11107B ([1]; β-CD (10 mg/mL solution mixed in equal volume with 0.1 mg/mL 11107B), 48 h, PBS (-)): 90%
Purity of macorolide compound 11107B ([1]; γ-CD (10 mg/mL solution mixed in equal volume with 0.1 mg/mL 11107B), 0 h, PBS (-)): 100%
Purity of macorolide compound 11107B ([1]; γ-CD (10 mg/mL solution mixed in equal volume with 0.1 mg/mL 11107B), 24 h, PBS (-)): 88%
Purity of macorolide compound 11107B ([1]; γ-CD (10 mg/mL solution mixed in equal volume with 0.1 mg/mL 11107B), 48 h, PBS (-)): 77%
stabilization constant Kc ([2]; 0.05 mg/mL): ≥ 1500
k0 (kobs when no β-CD was present) ([2]; PBS (-), 40° C., estimated): 0.152 h⁻¹
kc (kobs when a large excess of β-CD was present) ([2]; from intercept of 1/(k0-kobs) versus inverse of β-CD concentration, PBS (-), 40° C.): 0.004 h⁻¹
kobs (apparent decomposition rate constant) ([2]; β-CD concentration 0 mg/mL, PBS (-), 40° C.): 0.152 h⁻¹
1/(k0 − kobs) [2, 5]: 39.057
k0 − kobs [2, 5]: 0.026
kobs (apparent decomposition rate constant) [2, 5]: 0.126 h⁻¹
1/(k0 − kobs) [2, 6]: 16.736
k0 − kobs [2, 6]: 0.060
kobs (apparent decomposition rate constant) [2, 6]: 0.092 h⁻¹
1/(k0 − kobs) [2, 7]: 9.971
k0 − kobs [2, 7]: 0.100
kobs (apparent decomposition rate constant) [2, 7]: 0.052 h⁻¹
1/(k0 − kobs) [2, 8]: 7.590
k0 − kobs [2, 8]: 0.132
kobs (apparent decomposition rate constant) [2, 8]: 0.020 h⁻¹
decomposition rate of included 11107B relative to 11107B that was not included ([2]; β-CD inclusion, PBS (-), 40° C.): 1/30
Purity of macorolide compound 11107B ([3]; CD not added, 0 h): 98%
Purity of macorolide compound 11107B ([3]; CD not added, 24 h): 59%
Purity of macorolide compound 11107B ([3]; CD not added, 48 h): 34%
Purity of macorolide compound 11107B ([3]; CD not added, 120 h): 3%
Purity of macorolide compound 11107B ([3]; methylated β-CD (10 mg/mL solution mixed in equal volume with 0.1 mg/mL 11107B), 0 h): 98%
Purity of macorolide compound 11107B ([3]; methylated β-CD (10 mg/mL solution mixed in equal volume with 0.1 mg/mL 11107B), 24 h): 95%
Purity of macorolide compound 11107B ([3]; methylated β-CD (10 mg/mL solution mixed in equal volume with 0.1 mg/mL 11107B), 48 h): 92%
Purity of macorolide compound 11107B ([3]; methylated β-CD (10 mg/mL solution mixed in equal volume with 0.1 mg/mL 11107B), 120 h): 80%
Purity of macorolide compound 11107B ([3]; β-CD (10 mg/mL solution mixed in equal volume with 0.1 mg/mL 11107B), 0 h): 98%
Purity of macorolide compound 11107B ([3]; β-CD (10 mg/mL solution mixed in equal volume with 0.1 mg/mL 11107B), 24 h): 95%
Purity of macorolide compound 11107B ([3]; β-CD (10 mg/mL solution mixed in equal volume with 0.1 mg/mL 11107B), 48 h): 90%
Purity of macorolide compound 11107B ([3]; β-CD (10 mg/mL solution mixed in equal volume with 0.1 mg/mL 11107B), 120 h): 74%
stability in a solid form in a freeze-dried preparation on addition of cyclodextrin [4]: sufficiently stabilized
Purity of macorolide compound 11107B ([4]; HP-β-CD concentration 10 mg/mL, stored one month at 40° C.): 99.76 ± 0.08%
Purity of macorolide compound 11107B ([4]; HP-β-CD concentration 10 mg/mL, stored one month at 60° C.): 98.60 ± 0.06%
Purity of macorolide compound 11107B ([4]; HP-β-CD concentration 10 mg/mL, stored one month at −20° C.): 99.73 ± 0.01%
Purity of macorolide compound 11107B ([4]; HP-β-CD concentration 200 mg/mL, stored one month at 40° C.): 99.82 ± 0.02%
Purity of macorolide compound 11107B ([4]; HP-β-CD concentration 200 mg/mL, stored one month at 60° C.): 98.90 ± 0.05%
Purity of macorolide compound 11107B ([4]; HP-β-CD concentration 200 mg/mL, stored one month at −20° C.): 99.70 ± 0.00%
Purity of macorolide compound 11107B ([4]; HP-β-CD not added, stored one month at 40° C.): 98.17 ± 0.12%
Purity of macorolide compound 11107B ([4]; HP-β-CD not added, stored one month at 60° C.): 94.63 ± 0.11%
Purity of macorolide compound 11107B ([4]; HP-β-CD not added, stored one month at −20° C.): 99.56 ± 0.01%
